# Measured values taken from patent US10046022B2, “Synthetic peptide that increases radiosensitivity of tumor cells and use of same” (TOAGOSEI CO., LTD., priority 2015, dated 2018).
# Peptide text beside a SMILES is read from it.
# Tested on: HeLaS3 cells
# Assay: Radiosensitizing activity: cell survival rate (Cell Counting Kit-8, WST-8) of HeLaS3 cells after peptide and X-ray irradiation
# Assay type: cell-based, human
# Conditions: peptide 50 μM, X-ray dose 0 Gy, compared with 0 μM peptide
# Description: Radiosensitizing activity of the radiosensitizing synthetic peptide (Sample 1) obtained in Example 1 was evaluated by measuring cell survival rates during culturing after having irradiated test cells supplied with the radiosensitizing synthetic peptide with radiation (here, X-rays).
# Human carcinoma-derived cells (HeLaS3 cells) and cells derived from normal human tissue (CCD-1079Sk cells) were used for the test cells. […] Details of the evaluation test are as indicated below.
# First, a cultured cell line derived from human cervical cancer in the form of HeLaS3 cells (ATCC™ CCL2.2) were prepared for use as test cells derived from a human tumor. […]
# Next, at the point 48 hours had elapsed following X-ray irradiation, the viability of the test cells (the number of viable cells) was measured using a commercially available chromogenic assay kit (Cell Counting Kit-8, Dojindo Molecular Technologies, Inc.). Namely, the number of viable cells was measured by colorimetry by quantifying the amount of water-soluble formazan in the medium by measuring using absorption spectrophotometry (measuring wavelength: 450 nm, reference wavelength: 650 nm) based on the principle that the tetrazolium salt in the reagent is reduced by enzyme activity of viable cells resulting in the formation of water-soluble formazan. […]
smiles,measurement,value
"N=C(N)NCCC[C@H](NC(=O)[C@H](CCCNC(=N)N)NC(=O)[C@H](CO)NC(=O)[C@H](CCCCN)NC(=O)[C@H](CO)NC(=O)[C@H](CCCCN)NC(=O)[C@@H](N)CS)C(=O)N[C@@H](CO)C(=O)N[C@@H](CS)C(=O)O [Sample 1, CKSKSRRSC] (H-CKSKSRRSC-OH)","cell survivability, Test Group 1 in comparison with Test Group 2 (cytotoxicity attributable to the peptide)",slightly lower
